Columns and labels:
[1] = system: membrane binding site of Example 7; experiment: Radioligand Competition Binding Assay (RCB Assay)
[2] = system: HEK293 cells expressing APP 695 wt; experiment: Aβ production in HEK293 cells expressing APP 695 wt, compared with I-7T binding to membranes of the same cell line; type: cell-based
Source text: The concentration of Compound (I-7) leading to half-maximal inhibition (IC50) of proteolytic activity leading to Aβ production in HEK293 cells expressing APP 695 wt is similar to the concentration leading to half-maximal inhibition (IC50) of Compound (I-7T) binding to membranes derived from the same cell line. […] Also using a compound of Formula (I), we have discovered a macromolecule containing a binding site of action for compounds of Formula (I) critical to the processing of APP and the production of Aβ.
bind specifically to a binding site on a macromolecule or a complex of macromolecules involved in APP processing to produce reduction of Aβ peptide production. For example, the concentration of Compound (I-7) leading to half-maximal inhibition (IC50) of Aβ production in HEK293 cells expressing APP 695 wt is similar to the concentration leading to half-maximal inhibition (IC50) of Compound (I-7T) binding to membranes derived from the same cell line.

[3] = target: T1, presenilin 1 (Homo sapiens, UniProt P49768); experiment: immunoprecipitation of cross-linked polypeptides with antibodies to presenilin 1; type: binding; conditions: THP-1 membranes, Example 43T 30 nM plus competing compound
T1 construct: endogenous in cells; host or cells: THP-1 cell membranes
Protocol: The membranes were collected by centrifugation. The membranes were extracted with 50 mM Tris, pH 7.5 containing 100 mM KCl, 2 mM EDTA, 2% CHAPS and 1 complete protease inhibitor tablet per 25 ml buffer (COMPLETE™, Boehringer Mannheim; product number 1697 498)) for 1 hour at 4° C. The detergent soluble fraction was recovered by centrifugation (40,000 g, 30 min, 4° C.). The membrane extract was diluted one half with water. 500 ul of the membrane extract were pre-incubated with 10 ul of normal mouse IgG and 50 ul anti-mouse IgG Sepharose (Sigma) for 1 hour at 4° C. The supernatant was recovered by centrifugation. Subsequently, 10 ug of preimmune IgG (Sigma) or 10 ug of a monoclonal antibody to presenilin 1 was added in the presence of 50 ul anti-mouse IgG Sepharose. Examples of commercially available antibodies to presenilin 1 are Chemicon International: rat anti-human Presenilin 1 monoclonal antibody; product number MAB 1563; or Santa Cruz Biotechnology: goat anti Presenilin 1; product number SC-1244; or Santa Cruz Biotechnology: goat anti Presenilin 1; product number SC-1245. […] Radioactivity bound to the Sepharose beads was dissociated by boiling in SDS sample buffer (4×) containing 50 mM dithiothreitol. […]

apparent Ki: RCB Assay conducted with Example 7T versus Example 11T [1]	Molecule	IC50 of Aβ production compared with IC50 of Compound (I-7T) binding to membranes from the same cell line [2]	further results
statistically significant correlation	CC(C)C[C@H](CC(N)=O)C(=O)N[C@H]1CCCCN(Cc2cccc(Oc3ccccc3)c2)C1=O [Example 99]	–	–
statistically significant correlation	CCC[C@H](C(N)=O)[C@@H](CC(C)C)C(=O)N[C@H]1CCCCN(Cc2cccc(Oc3ccccc3)c2)C1=O [Example 7, (2R,3S) N1-[(3S)-Hexahydro-1-(3-phenoxybenzyl)-2-oxo-1H-azepin-3-yl]-2-(2-methylpropyl)-3-(propyl)-butanediamide]	similar	–
statistically significant correlation	CCC[C@H](C(N)=O)[C@@H](CC(C)C)C(=O)N[C@H]1CCCCN(Cc2cccc(C(=O)c3ccccc3)c2)C1=O [Example 11]	–	IC50 in β APPA Assay versus RCB Assay with Example 7T as radiolabeled standard [1]: statistically significant correlation of IC50 values; cross-linking to the membrane binding site ([1]; THP-1 membranes, photolysis at 365 nm): cross-linked to the membrane binding site of Example 7
–	Tritiated (2S,3R) N1-[1,3-Dihydro-1-methyl-2-oxo-5-(phenyl)-2H-1,4-benzodiazepin-3-yl]-2-(2-methylpropyl)-3-(n-propyl)-butanediamide [Example 43T]	correlation holds	equivalency to Example 7T as radioactive tracer in the RCB Assay [1]: can be used instead of Example 7T

Molecule	apparent Ki: RCB Assay conducted with Example 7T versus Example 11T [1]	IC50 of Aβ production compared with IC50 of Compound (I-7T) binding to membranes from the same cell line [2]	further results
CC(NC(=O)Cc1cc(F)cc(F)c1)C(=O)NC1N=C(c2ccccc2)c2ccccc2N(C)C1=O (stereo not shown) [Example 98, reference compound]	statistically significant correlation	–	competition of cross-linking / immunoprecipitation of labeled bands (FIG. 2) [3]: not in the presence of Example 98

From patent US6737038B1, “Use of small molecule radioligands to discover inhibitors of amyloid-beta peptide production and for diagnostic imaging” (Bristol-Myers Squibb Company, priority 1998, dated 2004)
